# Test results from article doi:10.1101/2025.11.12.687946v2 (biorxiv, 2025).
# T1: PaSuhB (Pseudomonas aeruginosa, UniProt Q9HXI4)
# T1 sequence (Q9HXI4 1-271): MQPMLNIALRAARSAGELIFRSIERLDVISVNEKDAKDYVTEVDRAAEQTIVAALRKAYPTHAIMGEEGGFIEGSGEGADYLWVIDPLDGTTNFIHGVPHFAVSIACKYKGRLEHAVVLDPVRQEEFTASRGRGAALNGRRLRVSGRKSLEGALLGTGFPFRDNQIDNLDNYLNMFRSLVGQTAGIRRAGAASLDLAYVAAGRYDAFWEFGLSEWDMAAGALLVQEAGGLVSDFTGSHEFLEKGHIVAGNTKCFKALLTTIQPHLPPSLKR
# B1: PaSuhB (Pseudomonas aeruginosa PAO1) (protein)
# chain: T1 sequence (Q9HXI4 1-271)
# What was measured:
# PaSuhB [1] = target: T1, PaSuhB; assay: biochemical
# PaSuhB [2] = target: T1, PaSuhB; assay: biochemical; remark: listed apart in the source
# purified protein = substrate: O=P(O)(O)O[C@@H]1[C@H](O)[C@H](O)[C@@H](O)[C@H](O)[C@H]1O; assay: purified protein; conditions: Mg2+, pH 8.0, 37 °C, no inhibitor
Molecule,IC50 (PaSuhB [1]) [µM],Kd (PaSuhB [2]) [µM],Km (purified protein) [µM]
"O=C(O)c1cc(O)c(O)c(O)c1 [GDE, 3,4,5-trihydroxybenzoic acid]",~1340,8.71,
B1,,,43.82
